In the NIST ThermoML archive (doi:10.1016/j.fluid.2014.09.014):

Experiment: refractive index (other wavelength) (dimensionless); xn = mol fraction of the nth substance listed
Settings: 101 kPa, Liquid, Standard Abbe refractometry

CC(C)OC(C)C [diisopropyl ether] + CO
refractive index
Settings	Wavelength=40.47 nm	Wavelength=486.1 nm	Wavelength=546.1 nm	Wavelength=587.6 nm	Wavelength=589.3 nm	Wavelength=632.8 nm	Wavelength=644 nm	Wavelength=706.5 nm
303.15 K, x2 = 0	–	–	1.36406	1.3626	1.36255	1.3613	1.361	1.3596
303.15 K, x2 = 0.0424	–	–	1.36403	1.36256	1.36251	1.36124	1.36094	1.35954
303.15 K, x2 = 0.082	–	–	1.36396	1.3625	1.36245	1.3612	1.3609	1.35948
303.15 K, x2 = 0.0822	–	–	1.36406	1.36261	1.36256	1.36129	1.36099	–
303.15 K, x2 = 0.1171	–	–	1.36389	1.36245	1.3624	1.36114	1.36084	1.35943
303.15 K, x2 = 0.1271	–	1.36672	1.36392	1.36246	1.3624	1.36116	1.36086	1.35944
303.15 K, x2 = 0.1827	–	1.36639	1.36258	1.36214	1.36209	1.36085	1.36055	1.35913
303.15 K, x2 = 0.2162	–	1.36618	1.36341	1.36196	1.36191	1.36065	1.36036	1.35895
303.15 K, x2 = 0.251	–	1.36621	1.36343	1.36198	1.36193	1.36068	1.36039	1.35898
303.15 K, x2 = 0.3298	–	1.36561	1.36283	1.3614	1.36134	1.36011	1.35981	1.35839
303.15 K, x2 = 0.3577	–	1.36581	1.36302	1.36159	1.36153	1.36029	1.35999	1.35898
303.15 K, x2 = 0.4497	–	1.36334	1.36058	1.35917	1.35912	1.35789	1.3576	1.35619
303.15 K, x2 = 0.4525	–	1.36382	1.36107	1.35964	1.35959	1.35835	1.35805	1.35666
303.15 K, x2 = 0.522	–	1.36159	1.35886	1.35746	1.35741	1.35619	1.3559	1.3545
303.15 K, x2 = 0.5543	–	1.36106	1.35836	1.35695	1.3569	1.35568	1.35539	1.35399
303.15 K, x2 = 0.609	–	1.35828	1.35561	1.35421	1.35416	1.35295	1.35266	1.35129
303.15 K, x2 = 0.6529	–	1.35681	1.35414	1.35275	1.35269	1.3515	1.35122	1.34985
303.15 K, x2 = 0.7504	–	1.35295	1.35029	1.34898	1.34888	1.34771	1.34743	1.34608
303.15 K, x2 = 0.804	–	1.34869	1.34608	1.34474	1.34469	1.34354	1.34327	1.34193
303.15 K, x2 = 0.807	–	1.34861	1.34603	1.34467	1.34462	1.34346	1.3432	1.34186
303.15 K, x2 = 0.8727	–	1.34352	1.34092	1.33965	1.3396	1.33846	1.3382	1.33691
303.15 K, x2 = 0.9233	–	1.33657	1.33409	1.33279	1.33274	1.33164	1.33139	1.33015
303.15 K, x2 = 0.9253	–	1.33839	1.3359	1.33458	1.33453	1.33342	1.33317	1.3319
303.15 K, x2 = 0.9527	–	1.33525	1.33279	1.3315	1.33145	1.33035	1.33009	1.32886
303.15 K, x2 = 0.9773	–	1.33174	1.32933	1.32803	1.32799	1.32689	1.32665	1.32546
303.15 K, x2 = 0.989	–	1.33062	1.3282	1.32693	1.32688	1.32579	1.32555	1.32216
303.15 K, x2 = 0.9964	–	1.32929	1.32688	1.32561	1.32557	1.32451	1.32427	1.32308
308.15 K, x2 = 0	1.37035	–	–	–	–	–	–	–
308.15 K, x2 = 0.0423	1.37024	–	–	–	–	–	–	–
308.15 K, x2 = 0.0424	1.37025	–	–	–	–	–	–	–
308.15 K, x2 = 0.082	1.37021	–	–	–	–	–	–	–
